Laboratory results as given in paper PMC11436024, “E-Cyanoacrylamides and 5-Imino Pyrrolones against Trypanosoma cruzi: Activity and Induced Mechanisms of Cell Death” (Tropical Medicine and Infectious Disease, 2024).

How the values were obtained:
[1] = system: epimastigote form of T. cruzi; test: In vitro epimastigote activity assay (alamarBlue); format: cell-based, Trypanosoma cruzi strain Y; details: for IC50: epimastigote form of T. cruzi, 72 h incubation at 26 °C, mean ± standard deviation; for SI (selectivity index, CC50/IC50): against the epimastigote form of T. cruzi, CC50 murine macrophages
Description: This assay is based on the use of alamarBlue. The alamarBlue reagent contains resazurin, which emits blue fluorescence under normal conditions. However, when the parasites are still alive and in contact with cell metabolism, the reagent is reduced to resorufin, which emits pink fluorescence.
In 96-well plates, serial dilutions of each compound were added with parasites at a concentration of 10^6 cells/mL in a final volume of 200 µL. Finally, 10% alamarBlue reagent was added, with 20 µL per well.
After 72 h of incubation at 26 °C, the plate was introduced into the plate reader and the fluorescence (570 nm excitation, 585 nm emission) of each well was determined using the EnSpire Multimode Plate Reader® (PerkinElmer, Thermo Fischer Scientific, Madrid, Spain). Finally, using a non-linear regression analysis in Graphpad Prism 9.0.0. the inhibitory concentration 50 (IC50) was calculated.
Inhibitory and cytotoxic concentrations (IC50, IC90, and CC50) were determined in duplicate on three different days using non-linear regression [Inhibitor] vs. response variable slope (four parameters) using non-linear regression analysis with 95% confidence, using GraphPad Prism 10.1.1 statistical software. The analysis was developed using Tukey’s test, considering significant values of p < 0.05. ANOVA analysis was also performed using GraphPad Prism 10.1.1.

[2] = system: Murine macrophages J774.A1; test: Cytotoxicity assay (alamarBlue); format: cell-based; details: for IC50 (cytotoxic concentration 50, CC50): 24 h
Description: Murine macrophages J774.A1 strain ATCC #TIB-67, acquired from American Type Culture Collection (ATTC, LGC Promochem, Barcelona, Spain), were cultured in DMEM medium and maintained at 37 °C and 5% CO2. This assay followed the same principle as the previous one, but in this case, macrophages were used instead of parasites to determine the toxicity of the compounds. A total of 50 μL with a concentration of 2 × 10^5 cells/mL was added to each well with serial dilutions of the compounds in 50 μL of RPMI medium. After this, 10% of alamarBlue™ reagent was added and the plate was incubated at 37 °C and 5% CO2 for 24 h. After this time, the fluorescence was read using the EnSpire Multimode Plate Reader® and the cytotoxic concentration 50 (IC50) was calculated. Inhibitory and cytotoxic concentrations (IC50, IC90, and CC50) were determined in duplicate on three different days using non-linear regression [Inhibitor] vs. response variable slope (four parameters) using non-linear regression analysis with 95% confidence, using GraphPad Prism 10.1.1 statistical software. The analysis was developed using Tukey’s test, considering significant values of p < 0.05. ANOVA analysis was also performed using GraphPad Prism 10.1.1.

[3] = system: amastigote form of T. cruzi; test: In vitro amastigote activity assay (alamarBlue, intracellular parasites in macrophages); format: cell-based, Trypanosoma cruzi; details: for IC50: Trypanosoma cruzi, Macrophage, amastigote form of T. cruzi in macrophages, 24 h with compound at 37 °C, mean ± standard deviation; for SI (selectivity index, CC50/IC50): against the amastigote form of T. cruzi, CC50 murine macrophages
Description: To perform the assay against the intracellular form of the parasite, the same colorimetric method based on the alamarBlue was developed. To produce the internalization of the parasites, an excess of epimastigote forms were added (10^5:10^4 parasites/macrophages in 100 µL of DMEM) to a 96-well plate for 24 h at 37 °C. Then, the wells were washed 3 times to eliminate the non-internalized parasites, and the serial dilutions of the compounds were added and dissolved in DMEM medium. After another incubation of 24 h at 37 °C, the drugs were eliminated and the cells were lysed with 0.05% SDS for 30 s. After adding LIT in a final volume of 200 µL and 10% of alamarBlue™ reagent, the plates were incubated for 96 h to promote the externalization of the parasites. Finally, the fluorescence was read using the EnSpire Multimode Plate Reader® and the inhibitory concentration 50 (IC50) was calculated. Inhibitory and cytotoxic concentrations (IC50, IC90, and CC50) were determined in duplicate on three different days using non-linear regression [Inhibitor] vs. response variable slope (four parameters) using non-linear regression analysis with 95% confidence, using GraphPad Prism 10.1.1 statistical software. The analysis was developed using Tukey’s test, considering significant values of p < 0.05. ANOVA analysis was also performed using GraphPad Prism 10.1.1.

[4] = system: L3 larvae of Culex pipiens; test: Larvicidal (in vivo toxicity) assay against mosquito larvae
Description: The L3 larvae from Culex pipiens, used in the cytotoxicity assay, were cultured at the Laboratorio de Entomología Médica of the Instituto Universitario de Enfermedades Tropicales y Salud Pública de Canarias in Tenerife, Spain.
For this purpose, 3 mL of sterile water with food for 48 h was added to 24-well plates, following WHO guidelines of necessary nutrients. In each well, one L3 larva of Culex pipiens was added, together with different concentrations of the compounds to be tested (IC90 and two times IC90). In addition, negative controls, without treatment and with the maximum amount of DMSO added in the treatments, and positive controls, benznidazole as the reference treatment and triton, previously reported to be toxic to larvae, were added. All experiments were performed in duplicate and repeated on 3 different days, observing larval viability at different times (1, 3, 12, 24, and 48 h after the start of treatment).

[5] = system: Trypanosoma cruzi parasites; test: Induction of cell death mechanisms (ATP, SYTOX Green, JC-1, Hoechst/PI, CellROX); format: cell-based; details: parasites incubated 24 h with the IC90 of the compounds
Description: To observe these events, parasites were incubated for 24 h with the IC90 of the compounds. After that, the plate was centrifuged at 3000 rpm at 4 °C for 10 min to remove the supernatant. The pellet was then resuspended in buffer and the different kits were added following the manufacturer’s instructions. CellTiter-Glo® Luminescent Cell Viability Assay was used to determine the ATP levels of the parasitic cells. This kit contains luciferin upon contact with cell metabolism, oxidises to oxyluciferin and emitting luminescence. The procedure was as follows: after 24 h of incubation and centrifugation, the pellet was resuspended in 25 μL of buffer and mixed with 25 μL of CellTiter-Glo® in the dark, shaking for 2 min. Then, after 15 min of incubation at room temperature, the luminescence was read in the EnSpire Multimode Plate Reader® [20]. In PCD, there is an alteration in the permeability of the plasma membrane, but the cell structure is maintained. The SYTOX™ Green Stain (Thermo Fischer Scientific, Madrid, Spain) only penetrates cells with increased plasma permeability. Once inside the cell, it will bind to the DNA and emit green fluorescence. After incubation and centrifugation, the pellet was resuspended in 50 μL of buffer and the reagent was added at a concentration of 1 μM. […]

[6] = murine macrophages, mean ± standard deviation
[7] = 2IC90 (two times IC90) of compound, 1 h
[8] = 2IC90 (two times IC90) of compound, 3 h
[9] = 2IC90 (two times IC90) of compound, 12 h
[10] = 2IC90 (two times IC90) of compound, 24 h
[11] = 2IC90 (two times IC90) of compound, 48 h

`N#C/C=C/C(=O)Nc1ccccc1` [A] was tested, and the IC50 ([1]; Trypanosoma cruzi, 72 h) was 18.7 ± 1.9 µM, the “SI (selectivity index, CC50/IC50)” value [1] was 5.1 and the “IC50 (cytotoxic concentration 50, CC50)” value [2, 6] was 94.78 ± 23.11 µM.
With `N=C1C=CC(=O)N1c1ccccc1` [B] the IC50 ([1]; Trypanosoma cruzi, 72 h) was < 10 µM, the IC50 [1] was 6.91 ± 1.33 µM and the IC50 [3] was 10.8 ± 2.11 µM. For the same compound, the “SI (selectivity index, CC50/IC50)” value [3] was 10.9, the “IC50 (cytotoxic concentration 50, CC50)” value [2, 6] was 118.07 ± 11.90 µM and the larval viability [4, 7] was “Alive”. The larval viability [4, 8] was “Alive”, the larval viability [4, 9] was “Alive” and the larval viability [4, 10] was “Alive”. For the same compound, the larval viability [4, 11] was “Alive”, the larval viability ([4]; IC90 of compound, 1 h) was “Alive” and the larval viability ([4]; IC90 of compound, 3 h) was “Alive”. The larval viability ([4]; IC90 of compound, 12 h) was “Alive”, the larval viability ([4]; IC90 of compound, 24 h) was “Alive” and the larval viability ([4]; IC90 of compound, 48 h) was “Alive”. For the same compound, the “type of cell death produced” value [5] was “late phase of this type of cell death”.
For `O=C(Cn1ccnc1[N+](=O)[O-])NCc1ccccc1` [Benznidazole, reference compound], the IC50 ([1]; Trypanosoma cruzi, 72 h) was 6.92 ± 0.77 µM, the “SI (selectivity index, CC50/IC50)” value [1] was 57.8 and the IC50 [3] was 2.67 ± 0.39 µM. For the same compound, the “SI (selectivity index, CC50/IC50)” value [3] was 149.8, the “IC50 (cytotoxic concentration 50, CC50)” value [2, 6] was 399.91 ± 1.40 µM and the larval viability [4, 7] was “Alive”. The larval viability [4, 8] was “Alive”, the larval viability [4, 9] was “Alive” and the larval viability [4, 10] was “Alive”. The larval viability [4, 11] was “Alive”, the larval viability ([4]; IC90 of compound, 1 h) was “Alive” and the larval viability ([4]; IC90 of compound, 3 h) was “Alive”. The larval viability ([4]; IC90 of compound, 12 h) was “Alive”, the larval viability ([4]; IC90 of compound, 24 h) was “Alive” and the larval viability ([4]; IC90 of compound, 48 h) was “Alive”.
With `N#C/C=C/C(=O)NCc1ccccc1` [C] the IC50 ([1]; Trypanosoma cruzi, 72 h) was 18.8 ± 2.03 µM, the IC50 [3] was 24.1 ± 6.22 µM and the “SI (selectivity index, CC50/IC50)” value [3] was 8.6. For the same compound, the “IC50 (cytotoxic concentration 50, CC50)” value [2, 6] was 208.01 ± 13.44 µM, the larval viability [4, 7] was “Alive” and the larval viability [4, 8] was “Alive”. The larval viability [4, 9] was “Alive”, the larval viability [4, 10] was “Alive” and the larval viability [4, 11] was “Alive”. For the same compound, the larval viability ([4]; IC90 of compound, 1 h) was “Alive”, the larval viability ([4]; IC90 of compound, 3 h) was “Alive” and the larval viability ([4]; IC90 of compound, 12 h) was “Alive”. For the same compound, the larval viability ([4]; IC90 of compound, 24 h) was “Alive” and the larval viability ([4]; IC90 of compound, 48 h) was “Alive”.
In the case of `N=C1C=CC(=O)N1Cc1ccccc1` [D], the IC50 ([1]; Trypanosoma cruzi, 72 h) is reported as 12.4 ± 1.49 µM, the “SI (selectivity index, CC50/IC50)” value [1] is reported as 6.9 and the “IC50 (cytotoxic concentration 50, CC50)” value ([2]; mouse) is reported as 85.32 ± 3.71 µM.
With `COc1ccc(CNC(=O)/C=C/C#N)cc1` [E] the IC50 ([1]; Trypanosoma cruzi, 72 h) was > 100 µM, the “SI (selectivity index, CC50/IC50)” value [1] was <3.2 and the “IC50 (cytotoxic concentration 50, CC50)” value [2, 6] was 319.61 ± 60.22 µM.
`COc1ccc(CN2C(=N)C=CC2=O)cc1` [F] was tested, and the “SI (selectivity index, CC50/IC50)” value [1] was 0.8 and the “IC50 (cytotoxic concentration 50, CC50)” value ([2]; mouse) was 2.82 ± 1.39 µM.
For `COc1ccc(NC(=O)/C=C/C#N)cc1` [G], the IC50 ([1]; Trypanosoma cruzi, 72 h) was 20.7 ± 2.66 µM, the IC50 [3] was 10.6 ± 3.05 µM and the “SI (selectivity index, CC50/IC50)” value [3] was 25.2. For the same compound, the “IC50 (cytotoxic concentration 50, CC50)” value [2, 6] was 266.62 ± 42.48 µM, the larval viability [4, 7] was “Alive” and the larval viability [4, 8] was “Alive”. For the same compound, the larval viability [4, 9] was “Alive”, the larval viability [4, 10] was “Alive” and the larval viability [4, 11] was “Alive”. For the same compound, the larval viability ([4]; IC90 of compound, 1 h) was “Alive”, the larval viability ([4]; IC90 of compound, 3 h) was “Alive” and the larval viability ([4]; IC90 of compound, 12 h) was “Alive”. For the same compound, the larval viability ([4]; IC90 of compound, 24 h) was “Alive” and the larval viability ([4]; IC90 of compound, 48 h) was “Alive”.
In the case of `COc1ccc(N2C(=N)C=CC2=O)cc1` [H], the “SI (selectivity index, CC50/IC50)” value [1] is reported as 0.9, the “toxicity of Z isomer relative to E isomer (times more toxic)” value ([2]; G–H isomer pair, murine macrophages) is reported as 100 and the “IC50 (cytotoxic concentration 50, CC50)” value [2, 6] is reported as 2.42 ± 1.58 µM.
In the case of Triton [reference compound], the larval viability ([4]; 0.01%, 1 h) is reported as “Alive”, the larval viability ([4]; 0.01%, 3 h) is reported as “Alive” and the larval viability ([4]; 0.01%, 12 h) is reported as “Dead”. The larval viability ([4]; 0.01%, 24 h) was “Dead”, the larval viability ([4]; 0.01%, 48 h) was “Dead” and the larval viability ([4]; 0.5%, 1 h) was “Alive”. For the same compound, the larval viability ([4]; 0.5%, 3 h) was “Dead”, the larval viability ([4]; 0.5%, 12 h) was “Dead” and the larval viability ([4]; 0.5%, 24 h) was “Dead”. For the same compound, the larval viability ([4]; 0.5%, 48 h) was “Dead”, the larval viability ([4]; 1%, 1 h) was “Dead” and the larval viability ([4]; 1%, 3 h) was “Dead”. The larval viability ([4]; 1%, 12 h) was “Dead”, the larval viability ([4]; 1%, 24 h) was “Dead” and the larval viability ([4]; 1%, 48 h) was “Dead”.
